Data reported in patent US20070027145A1, “Quinazoline derivatives as inhibitors of vegf receptor tyrosine kinases” (priority 2003, published 2007).

Experiments:
[1] = biological target: T1, human ether-a-go-go-related-gene (hERG)-encoded potassium channel (Homo sapiens, UniProt Q12809); test: hERG-encoded potassium channel inhibition test (d); assay type: cell-based; conditions: HEK cells, whole cell patch clamp, tail current
T1 construct: expressed in transfected cells; host or cells: Human embryonic kidney (HEK) cells under G418 selection
T1 sequence (Q12809 whole entry): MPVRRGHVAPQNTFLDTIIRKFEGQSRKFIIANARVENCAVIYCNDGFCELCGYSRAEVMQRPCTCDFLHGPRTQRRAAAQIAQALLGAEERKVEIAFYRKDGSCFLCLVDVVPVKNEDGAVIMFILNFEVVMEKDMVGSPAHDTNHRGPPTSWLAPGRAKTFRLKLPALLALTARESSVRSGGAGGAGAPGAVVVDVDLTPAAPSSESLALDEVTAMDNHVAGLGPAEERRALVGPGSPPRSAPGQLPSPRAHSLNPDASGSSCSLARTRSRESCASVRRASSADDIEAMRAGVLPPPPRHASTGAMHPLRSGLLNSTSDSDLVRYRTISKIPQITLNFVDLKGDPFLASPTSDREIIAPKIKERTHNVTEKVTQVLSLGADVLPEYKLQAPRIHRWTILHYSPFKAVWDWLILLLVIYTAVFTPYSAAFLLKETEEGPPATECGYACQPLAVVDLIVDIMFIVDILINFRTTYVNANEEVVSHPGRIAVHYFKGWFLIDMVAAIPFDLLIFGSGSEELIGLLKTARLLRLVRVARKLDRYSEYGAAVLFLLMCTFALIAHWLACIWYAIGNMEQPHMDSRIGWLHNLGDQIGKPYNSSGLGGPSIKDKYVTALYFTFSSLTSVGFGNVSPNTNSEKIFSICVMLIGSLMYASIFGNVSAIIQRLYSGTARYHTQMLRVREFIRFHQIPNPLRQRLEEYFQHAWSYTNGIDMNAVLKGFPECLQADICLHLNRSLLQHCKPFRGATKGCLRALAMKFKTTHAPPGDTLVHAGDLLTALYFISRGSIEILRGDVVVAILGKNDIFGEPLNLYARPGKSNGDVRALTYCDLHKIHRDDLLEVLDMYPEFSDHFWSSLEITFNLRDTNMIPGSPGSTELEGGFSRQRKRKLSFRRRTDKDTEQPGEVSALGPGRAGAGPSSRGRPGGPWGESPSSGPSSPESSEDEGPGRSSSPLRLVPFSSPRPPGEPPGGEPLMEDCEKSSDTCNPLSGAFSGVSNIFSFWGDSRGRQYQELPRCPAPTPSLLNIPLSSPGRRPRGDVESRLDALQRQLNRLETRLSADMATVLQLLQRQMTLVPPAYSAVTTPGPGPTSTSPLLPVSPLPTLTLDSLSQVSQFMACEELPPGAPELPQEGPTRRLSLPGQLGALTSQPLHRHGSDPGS
Method: This assay determines the ability of a test compound to inhibit the tail current flowing through the human ether-a-go-go-related-gene (hERG)-encoded potassium channel.
Human embryonic kidney (HEK) cells expressing the hERG-encoded channel were grown in Miniium Essential Medium Eagle (EMEM; Sigma-Aldrich catalogue number M2279), supplemented with 10% Foetal Calf Serum (Labtech Internation; product number 4-101-500), 10% M1 serum-free supplement (Egg Technologies; product number 70916) and 0.4 mg/ml Geneticin G418 (Sigma-Aldrich; catalogue number G7034). […]
For each cell recorded, a glass coverslp containing the cells were placed at the bottom of a Perspex chamber containging bath solution (see below) at ambient temperature (˜20° C.). […]
The cell was recorded in the whole cell configutation of the patch clamp technique. […]
The amplitude of the hERG-encoded potassium channel tail current following the step from +40 mV to −50 mV was recorded on-line by Clampex software (Axon Instruments). […]
The effect of each concentration of test compound was quantified by expressing the tail current amplitude in the presence of a given concentration of test compound as a percentage of that in the presence of vehicle.
Test compound potency (IC50) was determined by fitting the percentage inhibition values making up the concentration-effect to a four parameter Hill equation using a standard data-fitting package.

KDR = biological target: T2, KDR (Homo sapiens, UniProt P35968); test: In vitro receptor tyrosine kinase inhibition test (a), KDR; assay type: biochemical; conditions: read-out: IC50 in the enzyme assay (a) against KDR
T2 construct: made in house; host or cells: insect cells (e.g. Spodoptera frugiperda Sf21), recombinant baculovirus
T2 sequence (P35968 786-1356 limits assumed): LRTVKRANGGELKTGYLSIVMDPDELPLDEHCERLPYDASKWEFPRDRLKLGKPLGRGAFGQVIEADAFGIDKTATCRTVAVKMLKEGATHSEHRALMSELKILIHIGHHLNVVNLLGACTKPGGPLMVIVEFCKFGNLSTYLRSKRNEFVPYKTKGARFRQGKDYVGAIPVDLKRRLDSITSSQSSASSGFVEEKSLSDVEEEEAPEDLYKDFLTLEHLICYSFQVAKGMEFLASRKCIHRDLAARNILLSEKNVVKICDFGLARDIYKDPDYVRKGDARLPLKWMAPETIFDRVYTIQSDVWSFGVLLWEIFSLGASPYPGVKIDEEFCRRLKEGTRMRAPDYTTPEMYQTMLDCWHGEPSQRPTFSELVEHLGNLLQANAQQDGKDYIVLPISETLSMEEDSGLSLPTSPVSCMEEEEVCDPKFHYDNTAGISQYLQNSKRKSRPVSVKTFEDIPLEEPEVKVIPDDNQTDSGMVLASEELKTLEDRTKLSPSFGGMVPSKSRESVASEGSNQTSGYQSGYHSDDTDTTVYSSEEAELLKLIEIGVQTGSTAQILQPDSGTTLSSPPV
Description: (§1) This assay determines the ability of a test compound to inhibit tyrosine kinase activity. DNA encoding VEGF or epidermal growth factor (EGF) receptor cytoplasmic domains may be obtained by total gene synthesis (Edwards M, International Biotechnology Lab 5(3), 19-25, 1987) or by cloning. These may then be expressed in a suitable expression system to obtain polypeptide with tyrosine kinase activity. […] In the case of the VEGF receptor Flt (Genbank accession number X51602), a 1.7 kb DNA fragment encoding most of the cytoplasmic domain, commencing with methionine 783 and including the termination codon, described by Shibuya et al (Oncogene, 1990, 5: 519-524), was isolated from cDNA and cloned into a baculoviris transplacement vector (for example pAcYM1 (see The Baculovirus Expression System: A Laboratory Guide, L. A. King and R. D. Possee, Chapman and Hall, 1992) or pAc360 or pBlueBacHis (available from Invitrogen Corporation)). This recombinant construct was co-transfected into insect cells (for example Spodoptera frugiperda 21(Sf21)) with viral DNA (eg Pharmingen BaculoGold) to prepare recombinant baculovirus. […]

Flt-1 = biological target: T3, Flt-1 (Homo sapiens, UniProt P17948); test: In vitro receptor tyrosine kinase inhibition test (a), Flt-1; assay type: biochemical; conditions: read-out: IC50 in the enzyme assay (a) against Flt-1
T3 construct: encoding most of the cytoplasmic domain, commencing with methionine 783 and including the termination codon; made in house; host or cells: Sf21 insect cells, recombinant baculovirus
T3 sequence (P17948 781-1338 limits assumed): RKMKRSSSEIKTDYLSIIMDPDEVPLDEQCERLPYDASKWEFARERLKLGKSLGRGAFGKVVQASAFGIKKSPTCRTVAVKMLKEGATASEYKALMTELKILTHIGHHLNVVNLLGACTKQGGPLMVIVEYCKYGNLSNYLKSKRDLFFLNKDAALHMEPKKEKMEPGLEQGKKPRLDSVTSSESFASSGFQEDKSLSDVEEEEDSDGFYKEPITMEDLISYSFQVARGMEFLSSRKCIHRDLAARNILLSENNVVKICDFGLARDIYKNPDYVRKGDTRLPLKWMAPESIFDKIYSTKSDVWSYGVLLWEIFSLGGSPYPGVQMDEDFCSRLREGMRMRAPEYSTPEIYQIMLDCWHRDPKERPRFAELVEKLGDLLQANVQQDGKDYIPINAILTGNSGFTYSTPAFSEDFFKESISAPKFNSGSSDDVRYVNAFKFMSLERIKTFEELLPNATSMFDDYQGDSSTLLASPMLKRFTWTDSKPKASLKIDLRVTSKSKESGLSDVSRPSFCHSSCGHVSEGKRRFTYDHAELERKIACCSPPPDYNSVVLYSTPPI
Description: as §1

[2] = system: VEGF-stimulated proliferation of human umbilical vein endothelial cells (HUVEC); test: In vitro HUVEC proliferation assay (b), VEGF-stimulated; assay type: cell-based; conditions: VEGF 3 ng/ml, read-out: IC50 in the HUVEC assay (b) with respect to VEGF
Method: (§2) This assay determines the ability of a test compound to inhibit the growth factor-stimulated proliferation of human umbilical vein endothelial cells (HUVEC).
(§3) HUVEC cells were isolated in MCDB 131 (Gibco BRL)+7.5% v/v fetal calf serum (PCS) and were plated out (at passage 2 to 8), in MCDB 131+2% v/v FCS+3 μg/ml heparin+1 µg/ml hydrocortisone, at a concentration of 1000 cells/well in 96 well plates. After a minimum of 4 hours they were dosed with the appropriate growth factor (i.e. VEGF 3 ng/ml, EGF 3 ng/ml or b-FGF 0.3 ng/ml) and compound. The cultures were then incubated for 4 days at 37° C. with 7.5% carbon dioxide. On day 4 the cultures were pulsed with 1 μCi/well of tritiated-thymidine (Amersham product TRA 61) and incubated for 4 hours. The cells were harvested using a 96-well plate harvester (Tomtek) and then assayed for incorporation of tritium with a Beta plate counter. Incorporation of radioactivity into cells, expressed as cpm, was used to measure inhibition of growth factor-stimulated cell proliferation by compounds.

EGFR = biological target: T4, EGFR (Homo sapiens, UniProt P00533); test: In vitro receptor tyrosine kinase inhibition test (a), EGFR; assay type: biochemical; conditions: read-out: IC50 in the enzyme assay (a) against EGFR
T4 construct: made in house; host or cells: insect cells (e.g. Spodoptera frugiperda Sf21), recombinant baculovirus
T4 sequence (P00533 669-1210 limits assumed): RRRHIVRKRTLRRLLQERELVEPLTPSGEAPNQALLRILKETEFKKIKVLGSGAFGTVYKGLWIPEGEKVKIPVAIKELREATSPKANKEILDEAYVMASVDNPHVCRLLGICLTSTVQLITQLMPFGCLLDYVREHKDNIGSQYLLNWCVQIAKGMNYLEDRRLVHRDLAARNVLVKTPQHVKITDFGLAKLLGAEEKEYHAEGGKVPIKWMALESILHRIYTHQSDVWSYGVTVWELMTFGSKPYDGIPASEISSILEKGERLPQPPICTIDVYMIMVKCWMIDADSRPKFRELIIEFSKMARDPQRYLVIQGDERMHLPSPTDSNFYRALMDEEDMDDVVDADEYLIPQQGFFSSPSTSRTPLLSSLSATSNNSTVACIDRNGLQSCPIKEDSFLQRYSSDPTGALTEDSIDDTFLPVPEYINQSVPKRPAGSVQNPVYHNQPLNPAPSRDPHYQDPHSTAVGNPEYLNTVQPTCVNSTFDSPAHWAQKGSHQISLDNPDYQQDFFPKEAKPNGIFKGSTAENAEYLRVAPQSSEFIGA
Description: as §1

[3] = system: EGF-stimulated proliferation of human umbilical vein endothelial cells (HUVEC); test: In vitro HUVEC proliferation assay (b), EGF-stimulated; assay type: cell-based; conditions: EGF 3 ng/ml, read-out: IC50 in the HUVEC assay (b) with respect to EGF
Method: as §2, §3

Compound: COc1cc2c(Nc3ccc(Br)cc3F)ncnc2cc1OCC1CCN(C(=O)CN(C)C)CC1 [Example 1, 4-(4-bromo-2-fluoroanilino)-7-({1-[(N,N-dimethylamino)acetyl]piperidin-4-yl}methoxy)-6-methoxyquinazoline]
- IC50 [1]: 1500 nM
- IC50 (KDR): 29 nM
- IC50 (Flt-1): 490 nM
- IC50 [2]: 11.4 nM
- IC50 (EGFR): 72 nM
- IC50 [3]: 100 nM
